According to patent publication US5185340A, “Pyrimidinyl arylalkyl ethers with antihypertensive activity” (American Home Products Corporation, priority 1992, dated 1993):

Columns and labels:
angiotensin II receptor = assay: Rat adrenal receptor binding assay, displacement of radiolabeled angiotensin II; design: species or system rat (male Sprague-Dawley); conditions: rat adrenal cortex membranes; 125I-A II 1 nM; read-out: Inhibition of 125I-Angiotensin II binding, IC50
Method: The high affinity of the compounds for the angiotensin II receptor was established using a rat adrenal receptor binding assay, measuring the displacement of radiolabeled angiotensin II (A II) from the receptor, described as follows: Anesthetize male Sprague-Dawley rats (300-400 g body weight) with CO2 and sacrifice by cervical dislocation. Dissect adrenal glands and keep in ice-cold sucrose buffer. (0.2M sucrose, 1 mM EDTA, 10 mM Trizma base, pH=7.2). Remove medulla by squashing. Mince the cortex, rinse and homogenize in a chilled ground glass tissue grinder with 15 ml sucrose buffer. Centrifuge at 3000× g for 10 min. (Sorvall RCSC centrifuge, SS34 rotor 6200 rpm). Decant supernatant through gauze. Centrifuge combined supernatants at 12000× g for 13 min. (Beckman ultracentrifuge, 80Ti rotor, 13000 rpm). Centrifuge the supernatant from the previous step at 102000× g for 60 min. (Beckman ultracentrifuge,80Ti rotor, 38200 rpm). All steps are carried out at 4° C. Resuspend the pellet in 0.5 mL assay buffer (50 mM Tris HCI, 5 mM MgCl2, 0.2% BSA (proteasefree), pH=7.4, 25° C.). Store on ice. Determine membrane protein by Lowry or Bradford assay with BSA as standard. The binding assay is performed in triplicate, in 12×75 mm plastic test tubes or in 96-well plate (final volume of 0.25 mL). Add 140 μL assay buffer. […] Calculate the quantities of hot A II and the cold A II needed and make the dilution. […]

[1] = test system: Angiotensin II infused rat; assay: Reduction of blood pressure in Angiotensin II infused rat; assay type: in vivo; conditions: 3 mg/kg/ml via duodenal cannula
Method: In accordance with their ability to antagonize angiotensin II, the compounds of this invention show antihypertensive action in the following A II-infused rat model. Rats are anesthetized with Dial-Urethane (0.60 mL/kg, ip) and the trachea cannulated with PE 240. Either one femoral artery and both femoral veins or the carotid artery and the corresponding jugular vein are cannulated with PE 50. If the jugular vein is cannulated, two cannulas are placed in the one vein. The initial portion of the duodenum (just distal to the stomach) is cannulated with PE 50 via a small midline incision. Arterial pressure and heart rate are measured from the arterial cannula. Ten to 15 min are allowed following surgery for stabilization of arterial pressure. Ganglion blockade is then produced by intravenous administration of mecamylamine at 3 mg/kg (1 mL/kg of a 3 mg/mL solution). Ganglion blockade causes a fall in arterial pressure of about 50 mmHg. Mecamylamine is given every 90 min throughout the remainder of the experiment. An A II infusion is then begun into the other venous cannula at 0.25 μg/kg/min (at […]). The A II infusion returns arterial pressure to or slightly above the control level. Once arterial pressure has stabilized with the A II infusion, baseline values for mean arterial pressure (MAP) and heart rate are taken. The test compound, suspended in methyl cellulose, is then administered via the duodenal cannula at 0.1, 3 or, 30 mg/kg in a volume of 1 mL/kg. Mean arterial pressure and heart rate values are tabulated at 15, 30, 60, 90, 120, 150, 180, 210, and 240 min after administration of the test compound.

IC50 (angiotensin II receptor) [nM]	SMILES	% decrease in MAP ([1]; 15 min) [%]	% decrease in MAP ([1]; 90 min) [%]	% decrease in MAP ([1]; 240 min) [%]
200	CCCc1c(CC)nc(C(F)(F)F)nc1OCc1ccc(-c2ccccc2-c2nnn[nH]2)cc1 [Example 4, 6-Ethyl-5-propyl-4-[[2'-(1H-tetrazol-5-yl)[1,1'-biphenyl]-4-yl]methoxy]-2-(trifluoromethyl)pyrimidine]			
38	FC(F)(F)c1nc2c(c(OCc3ccc(-c4ccccc4-c4nnn[nH]4)cc3)n1)CCCC2 [Example 5, 4-[[2'-(1H-Tetrazol-5-yl)-biphenyl-4-yl]methoxy]-2-trifluoromethyl-5,6,7,8-tetrahydroquinazoline]	22	15	0
